Results taken from patent US11603377B2, “MTORC1 modulators and uses thereof” (Aeovian Pharmaceuticals, Inc., priority 2020, dated 2023).

Legend:
FKBP12 = FKBP12 (Homo sapiens (Human), UniProt P62942); test: SPR assay to determine binding affinity to FKBP12 (direct binding); details: immobilized biotinylated avi-FKBP12
Method: SPR Assay to Determine Binding Affinity to FKBP12.
Biotinylated avi-FKBP12 was immobilized on a streptavidin chip (Cytiva Series S SA) using a Biacore 8K or 8 k+ (Cytiva). To achieve an immobilization level of 1000 RU, 2 μg/ml biotinylated avi-FKBP12 were injected for 100 sec at a flow rate of 10 μl/min. Rapalogs were diluted in DMSO to 100× working concentration. Each Rapalog was 100-fold diluted in 50 mM HEPES pH 7.5, 150 mM NaCl, 2 mM MgCl2, 1 mM DTT, 0.05% Tween-20 and a serial dilution prepared (9 concentrations, 3-fold dilutions, 0.08-500 nM). […] The compound dilutions were then injected at 100 uL/min for 120 seconds contact time in sequence with increasing concentrations. Dissociation was monitored for 3600 seconds. 50 mM HEPES pH 7.5, 150 mM NaCl, 2 mM MgCl2, 1 mM DTT, 0.05% Tween-20, 1% DMSO was used as running buffer. The single-cycle kinetics data were fit to a 1:1 binding model to measure the association rate ka (1/Ms), the dissociation rate kd (1/s) and the affinity Kd (M).

FKBP51 = FKBP51 (Homo sapiens (Human), UniProt Q13451); test: SPR assay to determine binding affinity to FKBP51 (direct binding); details: immobilized biotinylated avi-FKBP51
Method: Example 29: SPR Assay to Determine Binding Affinity to FKBP51
Biotinylated avi-FKBP51 was immobilized on a streptavidin chip (Cytiva Series S SA) using a Biacore 8K or 8 k+ (Cytiva). To achieve an immobilization level of 2000 RU, 3 μg/ml biotinylated avi-FKBP51 were injected for 360 sec at a flow rate of 10 μl/min. Rapalogs were diluted in DMSO to 100× working concentration. Each Rapalog was 100-fold diluted in 50 mM HEPES pH 7.5, 150 mM NaCl, 2 mM MgCl2, 1 mM DTT, 0.05% Tween-20 and a serial dilution prepared (8 concentrations, 3-fold dilutions, 0.5-1000 nM). […] The compound dilutions were then injected at 100 uL/min for 120 seconds contact time and with 3600 seconds dissociation time with increasing concentrations. 50 mM HEPES pH 7.5, 150 mM NaCl, 2 mM MgCl2, 1 mM DTT, 0.05% Tween-20, 1% DMSO was used as running buffer. Multi-cycle kinetics data were fit to a 1:1 binding model to measure the association rate ka (1/Ms), the dissociation rate kd (1/s) and the affinity Kd (M).

[1] = target: FKBP12 / FRB ternary complex (Homo sapiens (Human), UniProt P42345+P62942); test: SPR assay to characterize ternary complex formation with FKBP12 (FRB binding to rapalog-saturated FKBP12); details: FRB dilutions with 100 nM rapalog on immobilized FKBP12
Method: Example 30: SPR Assay to Characterize Ternary Complex Formation with FKBP12
(§1) Biotinylated avi-FKBP12 was immobilized on a streptavidin chip (Cytiva Series S SA) using a Biacore 8K or 8 k+ (Cytiva). To achieve an immobilization level of 100 RU, 0.3 μg/ml biotinylated avi-FKBP12 were injected for 80 sec at a flow rate of 10 μl/min. Serial dilution of FRB was prepared (12 concentrations, 3-fold dilutions, 0.00011-20 μM) and supplemented with 100 nM of rapalog. A-B-A injection mode was used to ensure saturation immobilized FKBP12 with respective rapalog. 100 nM solution of the respective rapalog was injected before FRB injection for 120 sec and during dissociation for 420 sec. The FRB dilutions were then injected 120 seconds contact time with increasing concentrations. […] 50 mM HEPES pH 7.5, 150 mM NaCl, 2 mM MgCl2, 1 mM DTT, 0.05% Tween-20, 1% DMSO was used as running buffer at a flow rate of 30 μl/min. The multi-cycle kinetics data were fit to a 1:1 binding model to measure the association rate ka (1/Ms), the dissociation rate kd (1/s) and the affinity Kd (M). In case of fast association and dissociation, steady state affinity analysis following the law of mass action was used to determine the affinity Kd (M).

[2] = target: FKBP51 / FRB ternary complex (Homo sapiens (Human), UniProt P42345+Q13451); test: SPR assay to characterize ternary complex formation with FKBP51 (FRB binding to rapalog-saturated FKBP51); details: FRB dilutions with 100 nM rapalog on immobilized FKBP51
Method: Example 31: SPR Assay to Characterize Ternary Complex Formation with FKBP51
as §1, with “Biotinylated avi-FKBP51” for “Biotinylated avi-FKBP12”, “of 200” for “of 100”, “RU, 0.6” for “RU, 0.3”, “biotinylated avi-FKBP51” for “biotinylated avi-FKBP12”, “for 150” for “for 80”

mTORC1 = mTORC1 (Homo sapiens (Human), UniProt P42345+P62942); test: mTORC1 inhibition, AlphaLISA of Phospho-p70 S6 kinase (p70S6K pT389) in PC-3 cells; assay type: cell-based; details: inhibition of p70S6K pT389 levels
mTORC2 = mTORC2 (Homo sapiens (Human), UniProt P42345+P62942); test: mTORC2 inhibition, AlphaLISA of Phospho-AKT (pAKT pS473) in PC3 cells; assay type: cell-based
Method: Example 32: mTORC1 Inhibition, mTORC2 Inhibition, Cell Lysis, AlphaLISA Experiments, and Data Analysis
mTORC2 inhibition was determined via analysis of phosphorylation level of Phospho-AKT (pAKT pS473) with the corresponding AlphaLISA kit (PerkinElmer, Alpha SF Ultra™ Multiplex p-AKT1/2/3(Ser473)/Total AKT1). PC3 cells were plated on 96 well plates in assay medium (DMEM: Ham's F12, basic (CLS Cell Lines Service GmbH, Cat #820400a), supplemented with additional 10% FBS at 1.20E+06 cells/mL and incubated over-night at 37° C., 5% CO2. On the following day, cells were treated with assay medium (10% FBS) containing increasing compound concentrations (12 points at 3-fold dilutions) and incubated for 6 hours at 37° C., 5% CO2. Thereafter, medium was aspirated and cells were rinsed with PBS. In the following, cells were treated with compound dilutions in starvation medium (DMEM: Ham's F12, basic; without FBS) for further 18 h at 37° C., 5% CO2. Then, immediately prior to cell lysis, cells were treated with 12% FBS for 15 min.
After performing experiments according to mTORC1 and mTORC2 protocols, cells were harvested in lysis buffer supplied with the AlphaLISA kits, additionally enriched with Roche cOmplete™ Protease Inhibitor Cocktail (Cat #CO-RO). Thus, cells were lysed using 50 μL of the lysis buffer and incubated for 60 min at 4° C. while shaking. After centrifugation at 4000 rpm for 5 min, experiments were performed according to the AlphaLISA manufacturer's protocol.
Ten microliters of cell lysates were mixed with the acceptor mix. After incubation for 2 h at room temperature, the donor mix was added. After additional incubation at room temperature for 2 hours, AlphaLISA signal was read on PHERAstar® FSX (BMG Labtech) with AlphaPLEX module.
EC50 values were calculated by ExcelFit standard algorithm.

FKBP12, sequence (P62942 whole entry): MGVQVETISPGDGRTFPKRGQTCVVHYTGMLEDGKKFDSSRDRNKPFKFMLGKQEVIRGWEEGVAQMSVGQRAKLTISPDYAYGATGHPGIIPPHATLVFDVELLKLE
FKBP51, sequence (Q13451 whole entry): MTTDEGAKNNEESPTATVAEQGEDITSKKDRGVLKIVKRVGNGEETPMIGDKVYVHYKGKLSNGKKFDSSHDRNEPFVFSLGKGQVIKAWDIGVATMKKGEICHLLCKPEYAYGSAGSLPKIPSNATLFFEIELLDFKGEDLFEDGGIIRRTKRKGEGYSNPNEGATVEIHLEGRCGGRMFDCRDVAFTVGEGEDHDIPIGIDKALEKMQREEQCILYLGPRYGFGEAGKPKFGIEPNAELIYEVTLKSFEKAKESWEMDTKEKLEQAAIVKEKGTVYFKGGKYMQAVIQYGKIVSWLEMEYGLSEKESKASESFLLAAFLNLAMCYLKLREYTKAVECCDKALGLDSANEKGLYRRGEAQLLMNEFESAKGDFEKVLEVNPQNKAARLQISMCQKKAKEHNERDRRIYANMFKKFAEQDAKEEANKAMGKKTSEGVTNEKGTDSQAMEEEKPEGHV

Row | SMILES | Kd (FKBP12) [nM] | Kd (FKBP51) [nM] | Kd [1] [nM] | Kd [2] [nM] | IC50 (mTORC1) [nM] | mTORC2 % inhibition at 1 uM (mTORC2)
1 | COCCS(=O)(=O)NC1CC2CCC(C)C(O)(O2)C(=O)C(=O)N2CCCCC2C(=O)OC(C(C)CC2CCC(OCCO)C(OC)C2)CC(=O)C(C)C=C(C)C(O)C(OC)C(=O)C(C)CC(C)C=CC=CC=C1C (mixture of isomers) [Compound 16] | < 0.3 | 10 to 100 | 300 to 800 | > 800 | 0.1 to 0.8 | B (B>20% and less than 40% inhibition at 1 uM)
2 | COCCS(=O)(=O)NC1CC2CCC(C)C(O)(O2)C(=O)C(=O)N2CCCCC2C(=O)OC(C(C)CC2CCC(OCCCS(C)(=O)=O)C(OC)C2)CC(=O)C(C)C=C(C)C(O)C(OC)C(=O)C(C)CC(C)C=CC=CC=C1C (mixture of isomers) [Compound 17] | < 0.3 | 10 to 100 | 300 to 800 | > 800 | 0.1 to 0.8 | A (A ≤20% inhibition at 1 micro Molar (uM))
3 | COCCS(=O)(=O)NC1CC2CCC(C)C(O)(O2)C(=O)C(=O)N2CCCCC2C(=O)OC(C(C)CC2CCC(O)C(OC)C2)CC(=O)C(C)C=C(C)C(O)C(OC)C(=O)C(C)CC(C)C=CC=CC=C1C (mixture of isomers) [Compound 24] | < 0.3 | 10 to 100 | 300 to 800 | 300 to 800 | 0.1 to 0.8 | A (A ≤20% inhibition at 1 micro Molar (uM))
4 | COCCOCCOC1CC2CCC(C)C(O)(O2)C(=O)C(=O)N2CCCCC2C(=O)OC(C(C)CC2CCC(OCCCS(C)(=O)=O)C(OC)C2)CC(=O)C(C)C=C(C)C(O)C(OC)C(=O)C(C)CC(C)C=CC=CC=C1C (mixture of isomers) [Compound 65] | < 0.3 | 10 to 100 | 300 to 800 | > 800 | 0.1 to 0.8 | A (A ≤20% inhibition at 1 micro Molar (uM))
5 | COCCOCCOCCOC1CC2CCC(C)C(O)(O2)C(=O)C(=O)N2CCCCC2C(=O)OC(C(C)CC2CCC(OCCCS(C)(=O)=O)C(OC)C2)CC(=O)C(C)C=C(C)C(O)C(OC)C(=O)C(C)CC(C)C=CC=CC=C1C (mixture of isomers) [Compound 66] | 0.3 to 1 | 10 to 100 | > 800 | > 800 | 0.1 to 0.8 | A (A ≤20% inhibition at 1 micro Molar (uM))
6 | COCCOCCS(=O)(=O)NC1CC2CCC(C)C(O)(O2)C(=O)C(=O)N2CCCCC2C(=O)OC(C(C)CC2CCC(OCCCO)C(OC)C2)CC(=O)C(C)C=C(C)C(O)C(OC)C(=O)C(C)CC(C)C=CC=CC=C1C (stereo not drawn) [Compound 2] | < 0.3 | 10 to 100 | < 300 | 300 to 800 | < 0.1 | A (A ≤20% inhibition at 1 micro Molar (uM))
7 | COCCOCCS(=O)(=O)NC1CC2CCC(C)C(O)(O2)C(=O)C(=O)N2CCCCC2C(=O)OC(C(C)CC2CCC(OCCCO)C(OC)C2)CC(=O)C(C)C=C(C)C(O)C(OC)C(=O)C(C)CC(C)C=CC=CC=C1C (stereo not drawn) [Compound 3] | 0.3 to 1 | > 100 | > 800 | > 800 | > 0.8 | A (A ≤20% inhibition at 1 micro Molar (uM))
8 | CO[C@@H]1C[C@H](C[C@@H](C)[C@@H]2CC(=O)[C@H](C)/C=C(\C)[C@@H](O)[C@@H](OC)C(=O)[C@H](C)C[C@H](C)/C=C/C=C/C=C(\C)[C@H](NS(=O)(=O)CC3CCOCC3)C[C@@H]3CC[C@@H](C)[C@@](O)(O3)C(=O)C(=O)N3CCCC[C@H]3C(=O)O2)CC[C@H]1O [Compound 5] | < 0.3 | 10 to 100 | > 800 | > 800 | 0.1 to 0.8 | A (A ≤20% inhibition at 1 micro Molar (uM))
9 | CO[C@@H]1C[C@H](C[C@@H](C)[C@@H]2CC(=O)[C@H](C)/C=C(\C)[C@@H](O)[C@@H](OC)C(=O)[C@H](C)C[C@H](C)/C=C/C=C/C=C(\C)[C@@H](NS(=O)(=O)CC3CCOCC3)C[C@@H]3CC[C@@H](C)[C@@](O)(O3)C(=O)C(=O)N3CCCC[C@H]3C(=O)O2)CC[C@H]1O [Compound 6] | < 0.3 | < 10 | > 800 | > 800 | 0.1 to 0.8 | A (A ≤20% inhibition at 1 micro Molar (uM))
